Results on 38 molecules are retold here after patent publication US8299056B2 (Signal Pharmaceuticals, LLC, priority 2008, dated 2012).

This assay has as its target T1, Syk (Homo sapiens, UniProt P43405).
T1 construct: purchased Carna Biosciences
Description: Syk HTRF assay. The class given is biochemical. To be noted: IC50 activity level, read-out: Activity Level. In a few lines: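 HTRF kinase assay in HEPES pH 7.6 buffer with MgCl2, DTT and Triton X100; start mix of 87.5 μM ATP and 80 nM biotinylated peptide, 1 h at room temperature. EDTA stop, then Eu-anti-phosphotyrosine/streptavidin-DyLight 647 detection, read as 665/615 nm emission ratio.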
Background: In TR-FRET formats the signal depends on donor and acceptor labels being close together.
For the molecule `NCCn1cnc2ccc(-c3cccc4nc(Nc5ccccc5)nn34)cc21` [Example 515, 5-(1-(2-aminoethyl)-1H-benzo[d]imidazol-6-yl)-N-phenyl-[1,2,4]triazolo[1,5-a]pyridin-2-amine], the IC50 fell in the range of 1000 to 10000 nM. In the case of `NC(=O)c1ccc(Nc2nc3cccc(NC4CCNCC4)n3n2)cc1` [Example 516, 4-(5-(piperidin-4-ylamino)-[1,2,4]triazolo[1,5-a]pyridin-2-ylamino)benzamide], the IC50 was in the range of 1000 to 10000 nM.

For the molecule `Oc1cc(-c2cccc3nc(Nc4ccccc4)nn23)ccn1` [Example 517, 4-(2-(phenylamino)-[1,2,4]triazolo[1,5-a]pyridin-5-yl)pyridin-2-ol], the IC50 fell in the range of 1000 to 10000 nM.

As to `NC(=O)[C@H]1CC[C@@H](Nc2cccc3nc(Nc4ccccc4)nn23)CC1` [Example 519, cis-4-(2-(phenylamino)-[1,2,4]triazolo[1,5-a]pyrridin-5-ylamino)cyclohexanecarboxamide], the IC50 was 1000 to 10000 nM. Regarding `c1ccc(Nc2nc3cccc(-c4ccnc(N5CCNCC5)c4)n3n2)cc1` [Example 520, N-phenyl-5-(2-(piperazin-1-yl)pyridin-4-yl)-[1,2,4]triazolo[1,5-a]pyridin-2-amine], the IC50 lay within 1000 to 10000 nM. In the case of `COc1cc(-c2cccc3nc(Nc4ccccc4)nn23)ccn1` [Example 521] it was 500 to 1000 nM. Turning to `c1ccc(Nc2nc3cccc(-c4ccc5[nH]ncc5c4)n3n2)cc1` [Example 522, 5-(1H-indazol-5-yl)-N-phenyl-[1,2,4]triazolo[1,5-a]pyridin-2-amine], the IC50 lay within 500 to 1000 nM. For the molecule `c1ccc(Nc2nc3cccc(NC4CCNCC4)n3n2)cc1` [Example 523, N^2-phenyl-N^5-(piperidin-4-yl)-[1,2,4]triazolo[1,5-a]pyridine-2,5-diamine], the IC50 is 500 to 1000 nM. With `c1ccc(Nc2nc3cccc(-c4cccnc4)n3n2)cc1` [Example 524, N-phenyl-5-(pyridin-3-yl)-[1,2,4]triazolo[1,5-a]pyridin-2-amine], the IC50 was 1000 to 10000 nM. In the case of `c1ccc(Nc2nc3cccc(C4CCCCC4)n3n2)cc1` [Example 525, 5-cyclohexyl-N-phenyl-[1,2,4]triazolo[1,5-a]pyridin-2-amine] it was 1000 to 10000 nM; in that of `CC(C)C(=O)Nc1cccc2nc(Nc3ccccc3)nn12` [Example 526, N-(2-(phenylamino)-[1,2,4]triazolo[1,5-a]pyridin-5-yl)isobutyramide], 1000 to 10000 nM; in that of `CC(=O)Nc1cccc2nc(Nc3ccccc3)nn12` [Example 527, N-(2-(phenylamino)-[1,2,4]triazolo[1,5-a]pyridin-5-yl)acetamide], 500 to 1000 nM. In the case of `c1ccc(Nc2nc3cccc(-c4ccncc4)n3n2)cc1` [Example 528, N-phenyl-5-(pyridin-4-yl)-[1,2,4]triazolo[1,5-a]pyridin-2-amine], the IC50 was in the range of 250 to 500 nM.

Take `c1ccc(Nc2nc3cccc(Nc4ccccc4)n3n2)cc1` [Example 529, N^2,N^5-diphenyl-[1,2,4]triazolo[1,5-a]pyridine-2,5-diamine]: the IC50 is 250 to 500 nM.

As for `CC(C)Nc1cccc2nc(Nc3ccccc3)nn12` [Example 530, N^5-isopropyl-N^2-phenyl-[1,2,4]triazolo[1,5-a]pyrridine-2,5-diamine], the IC50 is 500 to 1000 nM. In the case of `Cc1noc2cc(Nc3nc4cccc(NC5CCOCC5)n4n3)ccc12` [Example 531, N^2-(3-methylbenzo[d]isoxazol-6-yl)-N^5-(tetrahydro-2H-pyran-4-yl)-[1,2,4]triazolo[1,5-a]pyridine-2,5-diamine], the IC50 fell in the range of 1000 to 10000 nM. `Cn1c(=O)[nH]c2cc(Nc3nc4cccc(CC5CCOCC5)n4n3)ccc21` [Example 532, 1-methyl-5-(5-((tetrahydro-2H-pyran-4-yl)methyl)-[1,2,4]triazolo[1,5-a]pyridin-2-ylamino)-1H-benzo[d]imidazol-2(3H)-one]: the IC50 is 0.005 to 250 nM. In the case of `COCc1n[nH]c2cc(Nc3nc4cccc(CN5CCNC(=O)C5)n4n3)ccc12` [Example 533, 4-((2-(3-(methoxymethyl)-1H-indazol-6-ylamino)-[1,2,4]triazolo[1,5-a]pyridin-5-yl)methyl)piperazin-2-one] it was 0.005 to 250 nM.

In the case of `Cc1nnc2cc(Nc3nc4cccc(NC5CCOCC5)n4n3)ccn12` [Example 534, N^2-(3-methyl-[1,2,4]triazolo[4,3-a]pyridin-7-yl)-N^5-(tetrahydro-2H-pyran-4-yl)-[1,2,4]triazolo[1,5-a]pyridine-2,5-diamine], the IC50 was in the range of 1000 to 10000 nM.

For `Cc1cc(Nc2nc3cccc(CC4CCOCC4)n3n2)cnc1N1CCOCC1` [Example 535, N-(5-methyl-6-morpholinopyridin-3-yl)-5-((tetrahydro-2H-pyran-4-yl)methyl)-[1,2,4]triazolo[1,5-a]pyridin-2-amine], the IC50 lay in the range of 500 to 1000 nM. Take `CC1(C)C(=O)Nc2cc(Nc3nc4cccc(C(F)(F)C5CCOCC5)n4n3)ccc21` [Example 536, 6-(5-(difluoro(tetrahydro-2H-pyran-4-yl)methyl)-[1,2,4]triazolo[1,5-a]pyridin-2-ylamino)-3,3-dimethylindolin-2-one]: the IC50 was 0.005 to 250 nM. For the molecule `Cc1noc2cc(Nc3nc4cccc(CC5CCOCC5)n4n3)ccc12` [Example 537, 3-methyl-N-(5-((tetrahydro-2H-pyran-4-yl)methyl)-[1,2,4]triazolo[1,5-a]pyridin-2-yl)benzo[d]isoxazol-6-amine], the IC50 is 500 to 1000 nM. As to `Cc1nnc2cc(Nc3nc4cccc(CC5CCOCC5)n4n3)ccn12` [Example 538, 3-methyl-N-(5-((tetrahydro-2H-pyran-4-yl)methyl)-[1,2,4]triazolo[1,5-a]pyridin-2-yl)-[1,2,4]triazolo[4,3-a]pyridin-7-amine], the IC50 lay in the range of 1000 to 10000 nM.

On to `Cc1n[nH]c2ncc(Nc3nc4cccc(NC5CCOCC5)n4n3)cc12` [Example 539, N^2-(3-methyl-1H-pyrazolo[3,4-b]pyridin-5-yl)-N^5-(tetrahydro-2H-pyran-4-yl)-[1,2,4]triazolo[1,5-a]pyridin-2,5-diamine], for which the IC50 was 1000 to 10000 nM.

Take `FC(F)(F)c1n[nH]c2cc(Nc3nc4cccc(CC5CCOCC5)n4n3)ccc12` [Example 540, 5-((tetrahydro-2H-pyran-4-yl)methyl)-N-(3-(trifluoromethyl)-1H-indazol-6-yl)-[1,2,4]triazolo[1,5-a]pyridin-2-amine]: the IC50 was 0.005 to 250 nM. On to `Cc1n[nH]c2ncc(Nc3nc4cccc(N[C@H]5CC[C@@H](O)CC5)n4n3)cc12` [Example 541, cis-4-(2-(3-methyl-1H-pyrazolo[3,4-b]pyridin-5-ylamino)-[1,2,4]triazolo[1,5-a]pyridin-5-ylamino)cyclohexanol], for which the IC50 lay in the range of 0.005 to 250 nM. Take `CN(c1cccc2nc(Nc3ccc4c(cnn4C)c3)nn12)C1CCOCC1` [Example 542, N^5-methyl-N^2-(1-methyl-1H-indazol-5-yl)-N^5-(tetrahydro-2H-pyran-4-yl)-[1,2,4]triazolo[1,5-a]pyridine-2,5-diamine]: the IC50 lay within 0.005 to 250 nM.

On to `Cc1noc2cc(Nc3nc4cccc(N[C@H]5CC[C@@H](O)CC5)n4n3)ccc12` [Example 543, cis-4-(2-(3-methylbenzo[d]isoxazol-6-ylamino)-[1,2,4]triazolo[1,5-a]pyridin-5-ylamino)cyclohexanol], for which the IC50 is 0.005 to 250 nM. For the molecule `Cc1n[nH]c2ncc(Nc3nc4cccc(CC5CCOCC5)n4n3)cc12` [Example 544, 3-methyl-N-(5-((tetrahydro-2H-pyran-4-yl)methyl)-[1,2,4]triazolo[1,5-a]pyridin-2-yl)-1H-pyrazolo[3,4-b]pyridin-5-amine], the IC50 was in the range of 500 to 1000 nM.

As for `CC(C)(C)OC(=O)N1C(=O)C(C)(C)c2ccc(Nc3nc4cccc(N[C@H]5CC[C@@H](O)CC5)n4n3)cc21` [Example 545, cis-tert-butyl 6-(5-(4-hydroxycyclohexylamino)-[1,2,4]triazolo[1,5-a]pyridin-2-ylamino)-3,3-dimethyl-2-oxoindoline-1-carboxylate], the IC50 lay within 0.005 to 250 nM. For `Cc1cc(Nc2nc3cccc(CN4CCNC(=O)C4)n3n2)cc2c1C(C)(C)C(=O)N2` [Example 546] the value was 0.005 to 250 nM; for `Cc1cc(Nc2nc3cccc(NC4CCOCC4)n3n2)cnc1N1CCOCC1` [Example 547, N^2-(5-methyl-6-morpholinopyridin-3-yl)-N^5-(tetrahydro-2H-pyran-4-yl)-[1,2,4]triazolo[1,5-a]pyrridine-2,5-diamine], 500 to 1000 nM; for `Cc1cc(Nc2nc3cccc(CC4CCOCC4)n3n2)cc2[nH]nc(C)c12` [Example 548, N-(3,4-dimethyl-1H-indazol-6-yl)-5-((tetrahydro-2H-pyran-4-yl)methyl)-[1,2,4]triazolo[1,5-a]pyridin-2-amine], 0.005 to 250 nM. For `CC(C)Nc1cccc2nc(Nc3ccc4c(c3)NC(=O)C4(C)C)nn12` [Example 549, 6-(5-(isopropylamino)-[1,2,4]triazolo[1,5-a]pyridin-2-ylamino)-3,3-dimethylindolin-2-one] the value was 0.005 to 250 nM; for `Cn1ncc2cc(Nc3nc4cccc(CC5CCOCC5)n4n3)ccc21` [Example 550, N-(1-methyl-1H-indazol-5-yl)-5-((tetrahydro-2H-pyran-4-yl)methyl)-[1,2,4]triazolo[1,5-a]pyridin-2-amine], 0.005 to 250 nM; for `Cn1ncc2cc(Nc3nc4cccc(NC5CCOCC5)n4n3)ccc21` [Example 551, N^2-(1-methyl-1H-indazol-5-yl)-N^5-(tetrahydro-2H-pyran-4-yl)-[1,2,4]triazolo[1,5-a]pyridine-2,5-diamine], 0.005 to 250 nM. Turning to `COCc1n[nH]c2cc(Nc3nc4cccc(CC5CCOCC5)n4n3)ccc12` [Example 552, N-(3-(methoxymethyl)-1H-indazol-6-yl)-5-((tetrahydro-2H-pyran-4-yl)methyl)-[1,2,4]triazolo[1,5-a]pyridin-2-amine], the IC50 lay within 0.005 to 250 nM. For the molecule `O[C@H]1CC[C@@H](Nc2cccc3nc(Nc4cnc5cn[nH]c5c4)nn23)CC1` [Example 553, cis-4-(2-(1H-pyrazolo-[4,3-b]pyridin-6-ylamino)-[1,2,4]triazolo[1,5-a]pyridin-5-ylamino)cyclohexanol], the IC50 was in the range of 0.005 to 250 nM.
